We go through 2 compounds from ChEMBL document CHEMBL4834461, “Intracellular fluorescence competition assay for inhibitor engagement of histone deacetylase” (Bioorg Med Chem Lett, 2021).

A word on the IC50: it is the concentration at which inhibition is half-maximal. A low value points to inhibition by little substance.

Each structure is given as a SMILES string.

One experiment concerns the target Histone deacetylase 1 (Homo sapiens, UniProt Q13547). The experiment is described as follows: Inhibition of HDAC1 (unknown origin).
The target of experiment [1] is T1, Protein deacetylase HDAC6 (Homo sapiens, UniProt Q9UBN7).
T1 sequence (Q9UBN7 whole entry): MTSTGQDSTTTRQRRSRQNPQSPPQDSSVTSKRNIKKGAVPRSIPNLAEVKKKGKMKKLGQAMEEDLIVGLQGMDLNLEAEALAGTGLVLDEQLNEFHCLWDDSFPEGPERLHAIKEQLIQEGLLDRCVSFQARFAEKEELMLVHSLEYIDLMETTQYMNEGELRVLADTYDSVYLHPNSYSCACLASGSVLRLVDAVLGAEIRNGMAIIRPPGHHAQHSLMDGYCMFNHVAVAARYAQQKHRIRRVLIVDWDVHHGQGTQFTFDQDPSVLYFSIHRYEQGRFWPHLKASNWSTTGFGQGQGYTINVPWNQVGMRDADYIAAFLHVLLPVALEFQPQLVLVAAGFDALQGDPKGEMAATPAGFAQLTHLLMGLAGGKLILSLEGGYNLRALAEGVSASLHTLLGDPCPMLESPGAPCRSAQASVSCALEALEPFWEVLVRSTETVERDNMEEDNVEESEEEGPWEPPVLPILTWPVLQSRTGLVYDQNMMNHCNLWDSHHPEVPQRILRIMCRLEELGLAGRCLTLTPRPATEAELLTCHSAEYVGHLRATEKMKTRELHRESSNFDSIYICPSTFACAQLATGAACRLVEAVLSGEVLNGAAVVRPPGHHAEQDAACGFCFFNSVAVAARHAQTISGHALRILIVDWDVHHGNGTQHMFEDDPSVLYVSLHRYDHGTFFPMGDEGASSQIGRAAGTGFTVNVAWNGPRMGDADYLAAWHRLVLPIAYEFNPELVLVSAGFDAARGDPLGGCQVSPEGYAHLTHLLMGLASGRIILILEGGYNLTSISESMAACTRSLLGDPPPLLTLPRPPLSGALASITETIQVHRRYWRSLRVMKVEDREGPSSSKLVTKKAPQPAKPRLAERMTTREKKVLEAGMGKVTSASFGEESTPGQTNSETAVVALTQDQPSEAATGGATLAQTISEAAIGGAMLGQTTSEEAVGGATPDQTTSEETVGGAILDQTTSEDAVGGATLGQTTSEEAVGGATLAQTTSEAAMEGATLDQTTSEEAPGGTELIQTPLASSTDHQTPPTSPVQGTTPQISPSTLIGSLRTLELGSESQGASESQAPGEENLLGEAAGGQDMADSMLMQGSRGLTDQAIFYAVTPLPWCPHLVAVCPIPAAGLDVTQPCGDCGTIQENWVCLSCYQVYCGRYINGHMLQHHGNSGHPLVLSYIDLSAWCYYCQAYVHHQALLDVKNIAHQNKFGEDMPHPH
The experiment in a line: Inhibition of HDAC6 (unknown origin).

Sequence of Histone deacetylase 1 (Q13547 whole entry): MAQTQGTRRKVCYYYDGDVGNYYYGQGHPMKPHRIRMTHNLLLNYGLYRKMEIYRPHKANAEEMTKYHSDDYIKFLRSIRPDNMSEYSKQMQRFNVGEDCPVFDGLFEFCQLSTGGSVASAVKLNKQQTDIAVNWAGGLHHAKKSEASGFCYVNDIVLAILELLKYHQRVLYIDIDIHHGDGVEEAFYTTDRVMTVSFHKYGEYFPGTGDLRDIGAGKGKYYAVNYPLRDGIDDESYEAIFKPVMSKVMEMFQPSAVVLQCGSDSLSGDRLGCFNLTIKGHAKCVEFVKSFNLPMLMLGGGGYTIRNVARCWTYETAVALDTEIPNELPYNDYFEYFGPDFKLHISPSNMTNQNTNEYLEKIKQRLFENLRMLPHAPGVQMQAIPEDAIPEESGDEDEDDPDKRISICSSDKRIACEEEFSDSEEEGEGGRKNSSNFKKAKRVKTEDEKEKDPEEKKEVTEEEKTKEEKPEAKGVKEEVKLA

As for `O=C(CCCCCN1C(=O)c2cccc3c(OCc4ccc(C(F)(F)F)cc4)ccc(c23)C1=O)NO`, the IC50 against Histone deacetylase 1 amounted to 280 nM; in experiment [1] it was 12 nM.
The like results for `CCCNc1ccc2c3c(cccc13)C(=O)N(CCCC(=O)NO)C2=O` were, in that order, 9500 nM and 1120 nM.
